pIC50: −log10 of the molar value. Where a name gives a salt, the structure may show the parent alone.

The record followed here is patent US20040209914A1, “Aromatic sulfone hydroxamic acids and their use as protease inhibitors” (priority 2000, published 2004).

Assay [1] deals with T1, Recombinant human MMP-2 (Homo sapiens, UniProt P08253).
T1 construct: made in house
T1 sequence (P08253 110-660): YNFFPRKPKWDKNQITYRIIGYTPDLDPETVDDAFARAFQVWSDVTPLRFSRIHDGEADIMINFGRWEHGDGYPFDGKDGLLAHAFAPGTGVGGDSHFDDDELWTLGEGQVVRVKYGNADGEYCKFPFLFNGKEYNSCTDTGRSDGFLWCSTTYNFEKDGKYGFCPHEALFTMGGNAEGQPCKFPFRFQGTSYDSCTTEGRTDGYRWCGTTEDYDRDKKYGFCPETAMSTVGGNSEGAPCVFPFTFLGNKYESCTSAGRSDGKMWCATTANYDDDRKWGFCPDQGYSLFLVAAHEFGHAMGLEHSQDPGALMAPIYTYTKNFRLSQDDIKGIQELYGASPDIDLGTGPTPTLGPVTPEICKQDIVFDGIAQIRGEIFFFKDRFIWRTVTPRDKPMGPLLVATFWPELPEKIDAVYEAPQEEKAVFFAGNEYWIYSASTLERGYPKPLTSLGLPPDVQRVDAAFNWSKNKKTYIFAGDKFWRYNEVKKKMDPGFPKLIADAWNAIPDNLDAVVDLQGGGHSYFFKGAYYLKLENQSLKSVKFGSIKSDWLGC
Put plainly: biochemical. To be noted: fluorogenic MCA-peptide substrate, pH 7.5, room temperature; read-out: MMP-2 IC50. How it is done: (§1) Recombinant human MMP-1, MMP-2, MMP-9, MMP-13, and were used in this assay. These enzymes were prepared in the Assignee's es following usual laboratory procedures. Specifics for preparing and e enzymes can be found in the scientific literature describing these See, e.g., Enzyme Nomenclature (Academic Press, San Diego, Calif., d the citations therein).
The MMP-2 was obtained from MMP-2 expressing transfected cells provided by Dr. Gregory Goldberg of Washington University.
(§2) The enzyme substrate was a methoxycoumarin-containing polypeptide having the following sequence:
(§3) MCA-ProLeuGlyLeuDpaAlaArgNH2
(§4) Here, “MCA” is methoxycoumarin and “Dpa” is 3-(2,4-dinitrophenyl)-L-2,3-diaminopropionyl alanine.
(§5) These solutions were then compared to a control (which contained equal amount of DMSO/buffer solution, but no hydroxamate compound) using Microfluor™ White Plates (Dynatech, Chantilly, Va.). Specifically, The MMPs were activated with APMA or trypsin. […] The control likewise was incubated at room temperature in separate plates with the MMP and 4 uM of the MMP substrate. […] Inhibition was measured as a reduction in fluorescent intensity as a function of inhibitor concentration using a Perkin Elmer (Norwalk, Conn.) L550 plate reader. The IC50's were then calculated from these measurements.

Assay [2] has as its target T2, Recombinant human MMP-13 (Homo sapiens, UniProt P45452).
T2 construct: made in house; host or cells: baculovirus / insect cells
The assay is described as follows: biochemical. Conditions: fluorogenic MCA-peptide substrate, pH 7.5, room temperature; read-out: MMP-13 IC50. How it is done:
as §1
The expressed proenzyme was first purified over a heparin agarose column, and then over a chelating zinc chloride column. The proenzyme was then activated by APMA for use in the assay.
as §2, §3, §4, §5

Take `COc1ccc(C(=O)C2CCN(c3ccc(S(=O)(=O)C4(C(=O)NO)CCN(C(=O)c5ccco5)CC4)cc3)CC2)cc1` [Example 139]: the pIC50 – broadly, the IC50 on a negative log10 scale, so that one unit is a factor of ten – in assay [1] was 6.48; in assay [2], 8.74.
Turning to `O=C(NO)C1(S(=O)(=O)c2ccc(N3CCC(c4ccc(F)cc4)CC3)cc2)CCN(C2CC2)CC1` [Example 259], the pIC50 in assay [1] is 9.22; in assay [2] it was 9.40.
For the compound `COCCN1CCC(C(=O)NO)(S(=O)(=O)c2ccc(N3CCC(C(=O)c4ccc(C)cc4)CC3)c(Cl)c2)CC1` [Example 275], the pIC50 was 5.17 in assay [1] and 6.74 in assay [2].
As to `COCCN1CCC(C(=O)NO)(S(=O)(=O)c2ccc(N3CCC(C(=O)c4ccc(C=C(C)C)s4)CC3)cc2)CC1` [Example 122], the pIC50 is 6.97 in assay [1] and 10.00 in assay [2].
`Cc1ccc(C2CCN(c3ccc(S(=O)(=O)C4(C(=O)NO)CCN(CC5CC5)CC4)cc3)CC2)cc1` [Example 273]: the pIC50 in assay [1] was 7.87; in assay [2], 8.60.
In the same order, the values of `C=CCN1CCC(C(=O)NO)(S(=O)(=O)c2ccc(N3CCC(C(=O)c4ccc(NC)cc4)CC3)cc2)CC1` [Example 161] are 6.63 and 9.52.
Regarding `COCCN1CCC(C(=O)NO)(S(=O)(=O)c2ccc(N3CCC(C(=O)c4cccc(C)c4)CC3)c(Cl)c2)CC1` [Example 277], the pIC50 is < 5.00 in assay [1] and 6.56 in assay [2].
With `CNc1ccc(C(=O)C2CCN(c3ccc(S(=O)(=O)C4(C(=O)NO)CCN(S(C)(=O)=O)CC4)cc3)CC2)cc1` [Example 167], the pIC50 was 5.53 in assay [1] and 8.33 in assay [2].
Regarding `C#CCN1CCC(C(=O)NO)(S(=O)(=O)c2ccc(N3CCC(C(=O)c4ccc(NC)cc4)CC3)cc2)CC1` [Example 173], the pIC50 in assay [1] is 6.93; in assay [2], 9.05.
On to `COCCN1CCC(C(=O)NO)(S(=O)(=O)c2ccc(N3CCC(C(=O)c4ccc(CCCC(C)O)cc4)CC3)cc2)CC1` (centres unmarked) [Example 244], for which the pIC50 in assay [2] is 9.70.
In the case of `COCCN1CCC(C(=O)NO)(S(=O)(=O)c2ccc(N3CCC(C(=O)c4ccc(OC(C)C)c(F)c4)CC3)cc2)CC1` [Example 250], the pIC50 is 6.97 in assay [1] and 8.68 in assay [2].
Take `COCCN1CCC(C(=O)NO)(S(=O)(=O)c2ccc(N3CCC(c4ccc(F)cc4)CC3)cc2)CC1` [Example 262]: the pIC50 was 8.77 in assay [1] and 9.00 in assay [2].
`C=CCN1CCC(C(=O)NO)(S(=O)(=O)c2ccc(N3CCC(C(=O)c4ccc(CCC)cc4)CC3)cc2)CC1` [Example 159]: the pIC50 in assay [1] is 7.49; in assay [2], 9.30.
The matching figures for `CCCc1ccc(C(=O)C2CCN(c3ccc(S(=O)(=O)C4(C(=O)NO)CCN(S(C)(=O)=O)CC4)cc3)CC2)cc1` [Example 165]: 5.76 and 7.07.
`O=C(Cc1cccs1)C1CCN(c2ccc(S(=O)(=O)C3(C(=O)NO)CCOCC3)cc2)CC1` [Example 387]: the pIC50 in assay [1] was 6.46; in assay [2], 8.35.
Turning to `CN(C)c1ccc(C(=O)C2CCN(c3ccc(S(=O)(=O)C4(C(=O)NO)CCOCC4)cc3)CC2)cc1` [Example 320], the pIC50 in assay [1] was 5.00.
Take `COCCN1CCC(C(=O)NO)(S(=O)(=O)c2ccc(N3CCC(C(=O)c4ccc(CN5CCOCC5)cc4)CC3)cc2)CC1` [Example 240]: the figures for the pIC50 in assay [1] and in assay [2] were 7.07 and 8.55, respectively.
Turning to `CCCCOc1ccc(C(=O)C2CCN(c3ccc(S(=O)(=O)C4(C(=O)NO)CCOCC4)cc3)CC2)cc1` [Example 329], the pIC50 in assay [1] is 5.74; in assay [2], 7.70.
In the case of `O=C(c1ccc(CC2CCCCC2)cc1)C1CCN(c2ccc(S(=O)(=O)C3(C(=O)NO)CCN(C4CC4)CC3)cc2)CC1` [Example 198], the values for the pIC50 in assay [1] and in assay [2] were 5.59 and 7.92, respectively.
Consider `CS(=O)(=O)N1CCC(C(=O)NO)(S(=O)(=O)c2ccc(N3CCC(C(=O)c4ccc5ccccc5c4)CC3)cc2)CC1` [Example 166], for which the figures for the pIC50 in assay [1] and in assay [2] were < 5.00 and 6.36, respectively.
Turning to `COCCN1CCC(C(=O)NO)(S(=O)(=O)c2ccc(N3CCC(C(=O)c4ccc(CO)cc4)CC3)cc2)CC1` [Example 238], the pIC50 in assay [1] is 7.21; in assay [2] it was 8.74.
As to `O=C(NO)C1(S(=O)(=O)c2ccc(N3CCC(c4nnc(-c5ccc(C(F)(F)F)cc5)o4)CC3)cc2)CCOCC1` [Example 375], the pIC50 in assay [1] is 5.57; in assay [2] it was 7.46.
Turning to `COc1ccc(C(=O)C2CCN(c3ccc(S(=O)(=O)C4(C(=O)NO)CCNCC4)cc3)CC2)cc1` [Example 140], the pIC50 in assay [1] was 6.10; in assay [2], 7.74.
As for `COCCN1CCC(C(=O)NO)(S(=O)(=O)c2ccc(N3CCC(C(=O)c4ccc(CCC(C)O)cc4)CC3)cc2)CC1` (centres unmarked) [Example 245], the pIC50 in assay [1] is 7.41; in assay [2] it was 8.96.
For the compound `COCCN1CCC(C(=O)NO)(S(=O)(=O)c2ccc(N3CCC(C(=O)c4ccc(OCCC5CCCCC5)cc4)CC3)cc2)CC1` [Example 228], the negative logarithm of the IC50 (pIC50) is 6.81 in assay [1] and 7.71 in assay [2].
Consider `COCCN1CCC(C(=O)NO)(S(=O)(=O)c2ccc(N3CCC(C(=O)c4ccc(COCC5CC5)cc4)CC3)cc2)CC1` [Example 239], for which the pIC50 is 7.12 in assay [1] and 9.22 in assay [2].
`COCCN1CCC(C(=O)NO)(S(=O)(=O)c2ccc(N3CCC(C(=O)c4cccc(OC)c4)CC3)c(Cl)c2)CC1` [Example 276]: the pIC50 in assay [1] was 5.56; in assay [2] it was 6.90.
As for `O=C(NO)C1(S(=O)(=O)c2ccc(N3CCC(c4ccc(Cl)cc4)CC3)cc2)CCN(C2CC2)CC1` [Example 261], the pIC50 in assay [1] was 9.00; in assay [2], 9.10.
In the case of `C[C@H]1C[C@H](C)CN(C(=O)C2CCN(c3ccc(S(=O)(=O)C4(C(=O)NO)CCNCC4)cc3)CC2)C1` (relative stereo) [Example 72, rel-4-[[4-[4-[[(3R,5R)-3,5-dimethyl-1-piperidinyl]carbonyl]-1-piperidinyl]phenyl]sulfonyl]-N-hydroxy-4-piperidinecarboxamide, monohydrochloride], the pIC50 in assay [1] was 5.00.
Turning to `O=C(NO)C1(S(=O)(=O)c2ccc(N3CCC(SCc4ccccc4Cl)CC3)cc2)CCN(C2CC2)CC1` [Example 147], the pIC50 in assay [1] is 6.84; in assay [2], 7.70.
For `O=C(NO)C1(S(=O)(=O)c2ccc(N3CCC(SCc4ccc(OC(F)(F)F)cc4)CC3)cc2)CCNCC1` [Example 146], the pIC50 was 6.70 in assay [1] and 8.40 in assay [2].
In the case of `O=C(NO)C1(S(=O)(=O)c2ccc(N3CCC(c4ccc(Cl)cc4)CC3)cc2)CCN(CC2CC2)CC1` [Example 266], the pIC50 in assay [2] was 8.77.
For `C[C@@H]1C[C@H](C)CN(C(=O)C2CCN(c3ccc(S(=O)(=O)C4(C(=O)NO)CCNCC4)cc3)CC2)C1` [Example 74, rel-4-[[4-[4-[[(3R,5S)-3,5-dimethyl-1-piperidinyl]carbonyl]-1-piperidinyl]phenyl]sulfonyl]-N-hydroxy-4-piperidinecarboxamide, monohydrochloride], the pIC50 in assay [1] was 5.00.
Consider `COCCN1CCC(C(=O)NO)(S(=O)(=O)c2ccc(N3CCC(c4nc5ccccc5o4)CC3)cc2)CC1` [Example 258], for which the figures for the pIC50 in assay [1] and in assay [2] were 7.34 and 7.85, respectively.
As to `Cn1ccc2cc(C(=O)C3CCN(c4ccc(S(=O)(=O)C5(C(=O)NO)CCOCC5)cc4)CC3)ccc21` [Example 340], in assay [1], the pIC50 is 5.00.
Regarding `CC1CC(C)CN(C(=O)C2CCN(c3ccc(S(=O)(=O)C4(C(=O)NO)CCN(C(=O)CNCC(F)(F)F)CC4)cc3)CC2)C1` (centres unmarked) [Example 113], the pIC50 in assay [1] is 5.00.
Consider `COCCN1CCC(C(=O)NO)(S(=O)(=O)c2ccc(N3CCC(Sc4nccs4)CC3)cc2)CC1` [Example 256], for which the pIC50 in assay [1] was 7.45; in assay [2], 8.12.
Consider `CCN1CCC(C(=O)NO)(S(=O)(=O)c2ccc(N3CCC(C(=O)c4ccc(NC)cc4)CC3)cc2)CC1` [Example 172], for which the results for the pIC50 in assay [1] and in assay [2] were 6.19 and 8.51, respectively.
Turning to `CC1CC(C)CN(C(=O)C2CCN(c3ccc(S(=O)(=O)C4(C(=O)NO)CCN(C(=O)CN5CCN(CCN(C)C)CC5)CC4)cc3)CC2)C1` (centres unmarked) [Example 111], the pIC50 in assay [1] is 5.00.
Turning to `CN(C)CCN1CCN(C(=O)C2CCN(c3ccc(S(=O)(=O)C4(C(=O)NO)CCOCC4)cc3)CC2)CC1` [Example 19], in assay [1], the pIC50 was 5.00.
